Experimental data from US20250326744A1, “PIPERAZINE DERIVATIVE OR SALT THEREOF, AND PHARMACEUTICAL COMPOSITION” (priority 2022, published 2025).
Structures can show the parent of a compound that is named as a salt.

Assays:
mexB (PA) strain = assay: Combinational effect with antibacterial agent against Pseudomonas aeruginosa (Test Examples 2 and 4): mexB (PA) strain with LVFX, TC or AZT at 1/4 MIC, EC99; assay type: cell-based; settings: mexB (PA) strain, Test Example 4; for EC99, combinational effect with AZT, mexB (PA): combined with AZT at 1/4 MIC; for EC99, combinational effect with LVFX, mexB (PA): combined with LVFX at 1/4 MIC; for EC99, combinational effect with TC, mexB (PA): combined with TC at 1/4 MIC
Procedure, shortened: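 EC99 denotes the minimum test-compound concentration (range 0–800 μM) that suppresses ≥99% of growth, measured by OD595, when combined with ¼ MIC levofloxacin (LVFX), tetracycline or aztreonam. The efflux-pump mutant mexB (PA), expressing mainly MexAB-OprM, was inoculated at 10^4–5 CFU/well in CAMHB for 16–20 h.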

S-3769 strain = assay: Combinational effect with antibacterial agent against Pseudomonas aeruginosa (Test Examples 2 and 4): S-3769 strain with AMK or GM at 1/4 MIC, EC99; assay type: cell-based; settings: S-3769 strain, Test Example 4; for EC99, combinational effect with AMK, S-3769 strain: combined with AMK at 1/4 MIC; for EC99, combinational effect with GM, S-3769 strain: combined with GM at 1/4 MIC
Procedure, shortened: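 EC99, the lowest test-compound concentration inhibiting growth by ≥99% (OD595), was measured with aminoglycoside AMK or GM held at ¼ MIC. Strain S-3769, a MexY-overexpressing clinical isolate, was cultured in CAMHB at 10^4 to 5 CFU/well for 16–20 h; compound range 0–800 μM.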

| SMILES | EC99, combinational effect with AZT, mexB (PA) (mexB (PA) strain) | EC99, combinational effect with LVFX, mexB (PA) (mexB (PA) strain) | EC99, combinational effect with TC, mexB (PA) (mexB (PA) strain) | EC99, combinational effect with AMK, S-3769 strain (S-3769 strain) | EC99, combinational effect with GM, S-3769 strain (S-3769 strain) |
| --- | --- | --- | --- | --- | --- |
| CCOc1cccc(F)c1CN1CCN(C(=O)[C@H](N)C2CCN(CCc3cc(Cl)ccc3-c3cc(N)ccc3Cl)CC2)CC1 [Example 560, Hydrobromide of (R)-2-amino-2-(1-(2-(5′-amino-2′,4-dichloro-[1,1-biphenyl]-2-yl)ethyl)piperidin-4-yl)-1-(4-(2-ethoxy-6-fluorobenzyl)piperazin-1-yl)ethan-1-one] | S (EC99≤12.5 μM) | S (EC99≤12.5 μM) | S (EC99≤12.5 μM) | A (12.5 μM<EC99≤25 μM) | A (12.5 μM<EC99≤25 μM) |
| CCOc1cccc(F)c1CN1CCN(C(=O)[C@H](N)C2CCN(CCc3cc(Cl)ccc3-c3cccc(NC)c3)CC2)CC1 [Example 561, Hydrobromide of (R)-2-amino-2-(1-(2-(4-chloro-3′-(methylamino)-[1,1-biphenyl]-2-yl)ethyl)piperidin-4-yl)-1-(4-(2-ethoxy-6-fluorobenzyl)piperazin-1-yl)ethan-1-one] | S (EC99≤12.5 μM) | S (EC99≤12.5 μM) | A (12.5 μM<EC99≤25 μM) | S (EC99≤12.5 μM) | S (EC99≤12.5 μM) |
| CCOc1cccc(F)c1CN1CCN(C(=O)[C@H](N)C2CCN(CCc3cc(Cl)ccc3-c3cccc(N(C)C)c3)CC2)CC1 [Example 562, Hydrobromide of (R)-2-amino-2-(1-(2-(4-chloro-3′-(dimethylamino)-[1,1-biphenyl]-2-yl)ethyl)piperidin-4-yl)-1-(4-(2-ethoxy-6-fluorobenzyl)piperazin-1-yl)ethan-1-one] | A (12.5 μM<EC99≤25 μM) | B (25 μM<EC99≤100 μM) | B (25 μM<EC99≤100 μM) | S (EC99≤12.5 μM) | S (EC99≤12.5 μM) |
| CCOc1cccc(F)c1CN1CCN(C(=O)[C@H](N)C2CCN(CCc3cc(Cl)ccc3-c3cnc(NC)c(C)c3)CC2)CC1 [Example 563, Hydrobromide of (R)-2-amino-2-(1-(5-chloro-2-(5-methyl-6-(methylamino)pyridine-3-yl)phenethyl)piperidin-4-yl)-1-(4-(2-ethoxy-6-fluorobenzyl)piperazin-1-yl)ethan-1-one] | C (100 μM<EC99) | C (100 μM<EC99) | C (100 μM<EC99) | A (12.5 μM<EC99≤25 μM) | A (12.5 μM<EC99≤25 μM) |
| CSc1ccccc1CN1CCN(C(=O)[C@H](N)C2CCN(CCc3cc(Cl)ccc3-c3cc(N)cc(F)c3)CC2)CC1 [Example 564, Hydrobromide of (R)-2-amino-2-(1-(2-(3′-amino-4-chloro-5′-fluoro-[1,1-biphenyl]-2-yl)ethyl)piperidin-4-yl)-1-(4-(2-(methylthio)benzyl)piperazin-1-yl)ethan-1-one] | S (EC99≤12.5 μM) | S (EC99≤12.5 μM) | S (EC99≤12.5 μM) | B (25 μM<EC99≤100 μM) | B (25 μM<EC99≤100 μM) |
| CNc1cccc(-c2ccc(Cl)cc2CCN2CCC([C@@H](N)C(=O)N3CCN(Cc4ccccc4SC)CC3)CC2)c1 [Example 565, Hydrobromide of (R)-2-amino-2-(1-(2-(4-chloro-3′-(methylamino)-[1,1-biphenyl]-2-yl)ethyl)piperidin-4-yl)-1-(4-(2-(methylthio)benzyl)piperazin-1-yl)ethan-1-one] | A (12.5 μM<EC99≤25 μM) | S (EC99≤12.5 μM) | S (EC99≤12.5 μM) | B (25 μM<EC99≤100 μM) | B (25 μM<EC99≤100 μM) |
| CCOc1cccc(F)c1CN1CCN(C(=O)[C@H](N)C2CC[N+](C)(CCc3cc(Cl)ccc3-c3ccccc3)CC2)CC1 (stereo partly drawn) [Example 568, Hydrobromide of (R)-4-(1-amino-2-(4-(2-ethoxy-6-fluorobenzyl)piperazin-1-yl)-2-oxoethyl)-1-(2-(4-chloro-[1,1-biphenyl]-2-yl)ethyl)-1-methylpiperidin-1-ium bromide] | C (100 μM<EC99) | C (100 μM<EC99) | C (100 μM<EC99) | S (EC99≤12.5 μM) | S (EC99≤12.5 μM) |
| CCOc1cccc(F)c1CN1CCN(C(=O)[C@H](N)C2CCC(N(C)Cc3ccccc3)CC2)CC1 (stereo partly drawn) [Example 570, Hydrobromide of (R)-2-amino-2-(4-(benzyl(methyl)amino)cyclohexyl)-1-(4-(2-ethoxy-6-fluorobenzyl)piperazin-1-yl)ethan-1-one] | C (100 μM<EC99) | C (100 μM<EC99) | C (100 μM<EC99) | B (25 μM<EC99≤100 μM) | B (25 μM<EC99≤100 μM) |
| CCOc1cccc(F)c1CN1CCN(C(=O)[C@H](N)C2CCN(CCc3cc(Cl)ccc3-c3cccc(O)c3Cl)CC2)CC1 [Example 571, (R)-2-amino-2-(1-(2-(2′,4-dichloro-3′-hydroxy-[1,1′-biphenyl]-2-yl)ethyl)piperidin-4-yl)-1-(4-(2-ethoxy-6-fluorobenzyl)piperazin-1-yl)ethan-1-one] | S (EC99≤12.5 μM) | S (EC99≤12.5 μM) | S (EC99≤12.5 μM) | S (EC99≤12.5 μM) | S (EC99≤12.5 μM) |
| CCOc1cccc(F)c1CN1CCN(C(=O)[C@H](N)C2CCN(CCc3cc(Cl)ccc3-c3cncc(O)c3)CC2)CC1 [Example 572, Hydrochloride of (R)-2-amino-2-(1-(5-chloro-2-(5-hydroxypyridin-3-yl)phenethyl)piperidin-4-yl)-1-(4-(2-ethoxy-6-fluorobenzyl)piperazin-1-yl) ethan-1-one] | B (25 μM<EC99≤100 μM) | C (100 μM<EC99) | B (25 μM<EC99≤100 μM) | A (12.5 μM<EC99≤25 μM) | A (12.5 μM<EC99≤25 μM) |
| COc1cccc(O)c1CN1CCN(C(=O)[C@H](N)C2CCN(CCc3cc(Cl)ccc3-c3ccccc3)CC2)CC1 [Example 575, Hydrochloride of (R)-2-amino-2-(1-(2-(4-chloro-[1,1-biphenyl]-2-yl)ethyl)piperidin-4-yl)-1-(4-(2-hydroxy-6-methoxybenzyl)piperazin-1-yl) ethan-1-one] | S (EC99≤12.5 μM) | S (EC99≤12.5 μM) | A (12.5 μM<EC99≤25 μM) | A (12.5 μM<EC99≤25 μM) | A (12.5 μM<EC99≤25 μM) |
